Among the data in patent US20130252930A1 (BIOMARIN PHARMACEUTICAL INC., priority 2010, published 2013) are IC50, half-life and inhibition values, retold here.

Like-named read-outs stand apart in the source and are kept apart here.

Usually IC50 stands for the concentration needed to halve the response being measured. What is called half-life is the time in which the quantity being followed falls by half. In general, inhibition refers to the change of the read-out against control, counted positive when it falls.

Series [1] concerns the target T1, CYP17 (human testicular microsome) (Homo sapiens, UniProt P05093).
T1 construct: using microsomal fraction from human testis (Celsis Cat #S00110) as the enzyme source; tissue Celsis S00110; host or cells: human testis microsomal fraction
T1 sequence (P05093 1-508): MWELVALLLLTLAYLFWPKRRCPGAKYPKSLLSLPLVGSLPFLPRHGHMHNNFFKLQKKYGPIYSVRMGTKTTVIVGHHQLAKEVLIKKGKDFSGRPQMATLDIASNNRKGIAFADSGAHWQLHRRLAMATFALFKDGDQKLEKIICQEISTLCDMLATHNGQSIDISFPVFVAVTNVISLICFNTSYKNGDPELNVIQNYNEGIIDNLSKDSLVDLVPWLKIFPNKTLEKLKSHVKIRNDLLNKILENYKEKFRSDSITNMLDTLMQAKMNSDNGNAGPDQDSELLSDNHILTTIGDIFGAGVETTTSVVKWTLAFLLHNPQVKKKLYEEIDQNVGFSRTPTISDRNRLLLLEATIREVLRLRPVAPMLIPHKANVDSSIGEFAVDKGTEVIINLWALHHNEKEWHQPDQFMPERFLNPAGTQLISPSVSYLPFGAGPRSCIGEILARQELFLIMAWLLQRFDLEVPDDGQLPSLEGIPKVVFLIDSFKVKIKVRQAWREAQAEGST
The series is described as follows: CYP17 enzymatic assay (IC50) (Biological Example 4). Format: biochemical.

Series [2] is described as follows: Human liver microsome stability assay (Biological Example 8b). To be noted: liver microsomes, pH 7.4. (Microsomes from liver hold many membrane-bound enzymes, among them those of drug oxidation.)
Method: The reaction was started with addition of excess NADPH (5 mg/mL, 15 μL in 0.1 M potassium phosphate buffer, 1.0 mM EDTA, pH 7.4), the total volume is 45 μL (compound final concentration was 1 μM). […] 50 μL of the supernatant was transferred from each well into a 96-well sample plate containing 50 μL of ultra-pure water (Millipore) for LC-MS/MS analysis.
Series [3] has as its target T1, CYP17 (human testicular microsome). The series is described as follows: CYP17 enzymatic assay (% inhibition at 10 nM), version 1 (Biological Example 5). Format: biochemical. To be noted: 10 nM compound, DHEA by ELISA, read-out: Biological Example No. 5: CYP17 percent inhibition at 10 nM (version 1). A general note: ELISA stands for enzyme-linked immunosorbent assay.
Method: The assays were performed in 96-well plates. Typical assays were carried out in total 100 μL volume that included test compounds at 10 nM concentration, 1× reaction buffer, 0.5 mM NADPH, 1 μM 17α-hydroxypregnenolone, and 2.5 μL of diluted human testicular microsome (Celsis. Cat #S00110). Reaction without test compound served as positive control. Reactions were allowed to incubate at 37° C. for 90 minutes with gentle shaking. The reaction was stopped by directly applying the enzymatic reaction mixture to ELISA plate for evaluation of DHEA concentration according to manufacturer's protocol (IBL America). A standard curve (OD450 vs. DHEA concentration) was generated using purified DHEA. […] Percent inhibition (inhibition %) of the compound was calculated using normalized DHEA concentration based on following formula: 100-([DHEA] of compound/[DHEA] of positive control *100).

The target of series [4] is T2, Cyp21 enzyme (Human HEK 293-Cyp21 stable transfected cells) (Homo sapiens, UniProt P08686).
T2 construct: expressed in transfected cells
T2 sequence (P08686 1-495): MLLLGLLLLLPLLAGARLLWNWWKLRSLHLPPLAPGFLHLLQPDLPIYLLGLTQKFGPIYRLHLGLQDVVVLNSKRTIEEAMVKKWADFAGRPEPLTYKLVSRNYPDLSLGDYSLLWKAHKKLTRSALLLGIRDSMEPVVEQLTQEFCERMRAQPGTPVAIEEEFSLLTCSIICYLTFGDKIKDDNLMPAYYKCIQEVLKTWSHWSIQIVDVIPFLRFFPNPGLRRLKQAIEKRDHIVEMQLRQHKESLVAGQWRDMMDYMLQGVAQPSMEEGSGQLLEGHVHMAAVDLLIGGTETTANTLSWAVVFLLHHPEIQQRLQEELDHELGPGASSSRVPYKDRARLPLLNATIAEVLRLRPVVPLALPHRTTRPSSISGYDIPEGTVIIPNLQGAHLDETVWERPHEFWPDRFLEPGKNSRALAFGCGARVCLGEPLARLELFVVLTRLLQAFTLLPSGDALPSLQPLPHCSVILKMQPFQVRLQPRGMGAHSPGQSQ
The experiment in a line: CYP21-HEK293 enzymatic assay (IC50) (Biological Example 11). In kind it is cell-based. To be noted: HEK 293-Cyp21 stable transfected cells; read-out: CYP21-HEK293 enzymatic assay IC50 (Biological Example No. 11).

Series [5] has as its target T1, CYP17 (human testicular microsome). The series is described as follows: CYP17 enzymatic assay (% inhibition at 1 nM) (Biological Example 12). To be noted: compound at 1 nM. Format: biochemical.
[6] abbreviates: human testicular microsome, DHEA by ELISA, read-out: Biological Example No. 4: CYP17 enzymatic assay IC50.
The mark [7] stands for this setting: read-out: CYP17 enzymatic assay % inhibition at 1 nM (Biological Example No. 12).
Where [8] appears, read: human testicular microsome, read-out: Biological Example No. 4: CYP17 enzymatic assay IC50.
The mark [9] stands for this setting: read-out: Biological Example No. 12: CYP17 enzymatic assay % inhibition at 1 nM.
[10] abbreviates: human testicular microsome, read-out: CYP17 enzymatic assay IC50 (Biological Example No. 4).

Regarding `C[C@]12CC[C@H]3[C@@H](CC[C@H]4C[C@@H](O)CC[C@@]43C)C1=CC=C2c1cccnc1` [Compound 163, (5S,8R,9S,10S,13S)-10,13-dimethyl-17-(pyridin-3-yl)-2,3,4,5,6,7,8,9,10,11,12,13-dodecahydro-1H-cyclopenta[a]phenanthren-3-ol], in series [1] (setting [6]), the IC50 is under 11 nM. The same compound registered a half-life at 1 μM in series [2] of over 50 min. For the same compound, in series [3], the inhibition at 0.01 µM is over 80%.
`CN1CC[C@@]2(C)C(=CC1=O)C1CC1[C@H]1C3=CC=C(c4cccnc4)[C@@]3(C)CC[C@@H]12` (stereo partly drawn) [Compound 396, (5aR,7aS)-3,5a,7a-trimethyl-8-(pyridin-3-yl)-3,4,5,5a,5b,6,7,7a,10b,10c,11,11a-dodecahydro-2H-cyclopenta[5,6]cyclopropa[3,4]naphtho[1,2-d]azepin-2-one]: the half-maximal inhibitory concentration (IC50) in series [4] is 10 to 100 nM.
`C[C@]12CCCCC1C(O)C[C@@H]1[C@@H]2CC[C@]2(C)C(n3ccnc3)=CC[C@@H]12` (stereo partly drawn) [Compound 85, (10R,13S)-17-(1H-imidazol-1-yl)-10,13-dimethyl-2,3,4,5,6,7,8,9,10,11,12,13,14,15-tetradecahydro-1H-cyclopenta[a]phenanthren-6-ol]: the half-maximal inhibitory concentration (IC50) in series [1] (setting [6]) is under 11 nM. Further, in series [2], the half-life at 1 μM lay in the range of 1 to 50 min. Moreover, in series [3], the inhibition at 0.01 µM is 50 to 80%.
`C[C@]12CCN(S(C)(=O)=O)CCC1CC[C@@H]1[C@@H]2CC[C@]2(C)C(n3ccnc3)=CC[C@@H]12` (stereo partly drawn) [Compound 438, (5aS,7aS)-8-(1H-imidazol-1-yl)-5a,7a-dimethyl-3-(methylsulfonyl)-1,2,3,4,5,5a,5b,6,7,7a,10,10a,10b,11,12,12a-hexadecahydrocyclopenta[5,6]naphtho[1,2-d]azepine]: the IC50 in series [4] was over 1000 nM.
Regarding `C[C@]12CCN(S(C)(=O)=O)CCC1CCC1C2CC[C@]2(C)C(n3cncc3C#N)=CCC12` (stereo partly drawn) [Compound 432, 1-((5aS,7aS)-5a,7a-dimethyl-3-(methylsulfonyl)-1,2,3,4,5,5a,5b,6,7,7a,10,10a,10b,11,12,12a-hexadecahydrocyclopenta[5,6]naphtho[1,2-d]azepin-8-yl)-1H-imidazole-5-carbonitrile], in series [4], the IC50 was over 1000 nM.
Take `CC1CC2C3=CC=C(c4cncc(F)c4)[C@@]3(C)CCC2[C@@]2(C)CCN(C)C(=O)C=C12` (stereo partly drawn) [Compound 394, (5aR,7aS)-8-(5-fluoropyridin-3-yl)-3,5a,7a,12-tetramethyl-3,4,5,5a,5b,6,7,7a,11,12-decahydrocyclopenta[5,6]naphtho[1,2-d]azepin-2(10bH)-one]: the IC50 in series [4] is over 100 nM.
With `C=C1C[C@H]2C3=CC=C(c4cccnc4)[C@@]3(C)CC[C@@H]2[C@@]2(C)CCC(=O)C=C12` [Compound 348, (10R,13S)-10,13-dimethyl-6-methylene-17-(pyridin-3-yl)-6,7,8,9,10,11,12,13-octahydro-1H-cyclopenta[a]phenanthren-3(2H)-one], the IC50 in series [4] fell in the range of 10 to 100 nM.
The same measure, in the same setting: the value for `C[C@]12CC[C@H]3[C@@H](CC4(CC4)C4=CC(=O)CC[C@@]43C)C1=CC=C2c1cncc(F)c1` [Compound 354, (10R,13S)-17-(5-fluoropyridin-3-yl)-10,13-dimethyl-1,7,8,9,10,11,12,13-octahydrospiro[cyclopenta[a]phenanthrene-6,1′-cyclopropan]-3(2H)-one] was 10 to 100 nM.
On to `C[C@]12CCC(=O)CCC1=CCC1[C@@H]2CC[C@]2(C)C(n3ccnc3)=CC[C@@H]12` (stereo partly drawn) [Compound 106, (3aS,10aR,10bS,12aS)-1-(1H-imidazol-1-yl)-10a,12a-dimethyl-3,3a,3b,4,6,7,10,10a,10b,11,12,12a-dodecahydrocyclohepta[a]cyclopenta[f]naphthalen-8(9H)-one], for which the half-maximal inhibitory concentration (IC50) in series [1] (setting [6]) is under 11 nM. The compound further came in with a half-life at 1 μM in series [2] of 1 to 50 min. Besides, the inhibition at 0.01 µM in series [3] was over 80%.
As for `C[C@]12CCCN(S(C)(=O)=O)CC1CCC1C2CC[C@]2(C)C(n3cncc3C#N)=CCC12` (stereo partly drawn) [Compound 431, 1-((5aR,7aS)-5a,7a-dimethyl-2-(methylsulfonyl)-1,2,3,4,5,5a,5b,6,7,7a,10,10a,10b,11,12,12a-hexadecahydrocyclopenta[5,6]naphtho[2,1-c]azepin-8-yl)-1H-imidazole-5-carbonitrile], in series [4], the IC50 was over 1000 nM.
Turning to `C[C@]1(O)CC[C@@]2(C)C(CCC3C2CC[C@]2(C)C(c4cccnc4)=CCC32)C1` (stereo partly drawn) [Compound 254, (3S,10S,13S)-3,10,13-trimethyl-17-(pyridin-3-yl)-2,3,4,5,6,7,8,9,10,11,12,13,14,15-tetradecahydro-1H-cyclopenta[a]phenanthren-3-ol], in series [1], the IC50 is under 11 nM. Moreover, the inhibition at 0.001 µM in series [5] (setting [7]) is over 50%. The compound also gave a half-life at 1 μM in series [2] of 1 to 50 min.
On to `C[C@]12CC[C@H](O)CC1=CCC1C2CC[C@]2(C)C(c3cncc(F)c3)=CCC12` (stereo partly drawn) [Compound 274, (3S,10R,13S)-17-(5-fluoropyridin-3-yl)-10,13-dimethyl-2,3,4,7,8,9,10,11,12,13,14,15-dodecahydro-1H-cyclopenta[a]phenanthren-3-ol], for which the IC50 in series [1] (setting [8]) was under 11 nM. The inhibition at 0.001 µM in series [5] (setting [9]) was over 50%. Also, the half-life at 1 μM in series [2] is over 50 min.
`CCCC(=O)N[C@@H]1CC[C@@]2(C)C(=CC[C@@H]3[C@@H]2CC[C@]2(C)C(c4cccnc4)=CC[C@@H]32)C1` [Compound 235, N-((3R,10R,13S)-10,13-dimethyl-17-(pyridin-3-yl)-2,3,4,7,8,9,10,11,12,13,14,15-dodecahydro-1H-cyclopenta[a]phenanthren-3-yl)butyramide]: the IC50 in series [1] (setting [10]) is under 11 nM. The inhibition at 0.001 µM in series [5] (setting [7]) is over 50%. In series [2], this compound came in with a half-life at 1 μM of 1 to 50 min.
As to `C#C[C@]1(O)CC[C@@]2(C)C(CCC3C2CC[C@]2(C)C(c4cccnc4)=CCC32)C1` (stereo partly drawn) [Compound 474, (3S,10S,13S)-3-ethynyl-10,13-dimethyl-17-(pyridin-3-yl)-2,3,4,5,6,7,8,9,10,11,12,13,14,15-tetradecahydro-1H-cyclopenta[a]phenanthren-3-ol], in series [1] (setting [10]), the concentration for half-maximal inhibition (IC50) was over 25 nM. The inhibition at 0.001 µM in series [5] (setting [7]) is 10 to 50%. The compound also came in with a half-life at 1 μM in series [2] of over 50 min.
Turning to `C[C@]12CCC3C(CC(O)C45CC4CC[C@]35C)C1=CC=C2c1cccnc1` (stereo partly drawn) [Compound 200, (3aR,5aS)-3a,5a-dimethyl-6-(pyridin-3-yl)-1,1a,2,3,3a,3b,4,5,5a,8b,9,10-dodecahydrocyclopenta[a]cyclopropa[2,3]cyclopenta[1,2-f]naphthalen-10-ol], the IC50 in series [1] (setting [10]) is under 11 nM. Further, the inhibition at 0.001 µM in series [5] (setting [7]) was over 50%. This compound displayed a half-life at 1 μM in series [2] of 1 to 50 min.
The matching figures for `C[C@]12CCC(NC(=O)C3CCC3)CC1=CCC1C2CC[C@]2(C)C(n3ccnc3)=CCC12` (stereo partly drawn) [Compound 240, N-((10R,13S)-17-(1H-imidazol-1-yl)-10,13-dimethyl-2,3,4,7,8,9,10,11,12,13,14,15-dodecahydro-1H-cyclopenta[a]phenanthren-3-yl)cyclobutanecarboxamide]: under 11 nM, over 50% and 1 to 50 min.
Turning to `C[C@]12CCC3C(CC(F)[C@@]4(O)C[C@@H](O)CC[C@]34C)C1CC=C2c1cccnc1` (stereo partly drawn) [Compound 323, (3S,5R,10R,13S)-6-fluoro-10,13-dimethyl-17-(pyridin-3-yl)-2,3,4,5,6,7,8,9,10,11,12,13,14,15-tetradecahydro-1H-cyclopenta[a]phenanthrene-3,5-diol], in series [1] (setting [8]), the IC50 is under 11 nM. Besides, the inhibition at 0.001 µM in series [5] (setting [9]) is over 50%. For the same compound, in series [2], the half-life at 1 μM lay in the range of 1 to 50 min.
